The values that follow are results of earlier work, collected in patent publication US6071923A, “Retinoyloxy aryl-substituted alkylene butyrates useful for the treatment of cancer and other proliferative diseases” (Bar-Ilan University, priority 1997, dated 2000).

Values joined by “and” are separate entries in the source; they are usually repeats but may differ in a detail not shown here. Equal entries are not always repeated. Where two headings read alike, the source gives them in different places.

In this data set the test system is HL-60 cells.
[1] abbreviates: HL-60 human promyelocytic cell line, agent alone, read-out: ED50, induction of differentiation of HL-60 cells, agent alone.

For `CCCC(=O)O` [BA, Butyric acid], the “dose reduction index value” (HL-60 cells, BA ED50 alone versus with about 28 nM RA) is given as “about 6 fold”. Further, the EC50 was ~75 µM (HL-60 cells, BA combined with about 28 nM RA, read-out: ED50 value for BA in combination with RA); 444 µM and ~400 µM under setting [1].
`CC1=C(/C=C/C(C)=C/C=C/C(C)=C/C(=O)O)C(C)(C)CCC1` [RA, retinoic acid]: the EC50 under setting [1] was 0.13 µM.
